“Also recorded” adds a separate entry of the source.
How the values were obtained:
[1] = test system: C4-2 xenografts; test: C4-2 xenograft progression in orchiectomized mice with DHEA pellet; assay type: in vivo; settings: 0.5 mmol/kg/d i.p.; compared to Abi acetate and enzalutamide
Procedure: Male NSG mice, 6 to 8 weeks of age were obtained from the Cleveland Clinic Biological Resources Unit facility. All mouse studies were conducted under a protocol approved by the Cleveland Clinic Institutional Animal Care and Use Committee. Sample size was determined based on our prior studies of steroidogenesis inhibition in xenograft models of CRPC. Chang et al., Proc Natl Acad Sci USA., 108:13728-13733 (2011). Criteria for progression were determined based on similar criteria that are utilized for clinical progression. Mice were surgically orchiectomized and implanted with a 5 mg 90-day sustained-release DHEA pellet (Innovative Research of America) to mimic CRPC in the context of human adrenal physiology. Two days later, 10^7 VCaP or C4-2 cells were injected subcutaneously with matrigel. […] Control groups were administered 0.1 mL 5% benzyl alcohol and 95% safflower oil solution via intraperitoneal injection every day. Mice in enzalutamide group were fed with enzalutamide in chow every day (10 mg/Kg/day). Tran et al., Science. 324:787-790 (2009). Treatment was not blinded to the investigator. Tumor volume was measured daily, and time to increase in tumor volume by 20% was determined. […] The significance of the difference between treatment groups was assessed by Kaplan-Meier survival analysis using a log-rank test in SigmaStat 3.5.

[2] = biological target: T1, human 3βHSD1 (Homo sapiens, UniProt P14060); test: Recombinant 3βHSD1 enzyme assay, [3H]-pregnenolone metabolism (Lineweaver-Burk); assay type: biochemical; settings: pregnenolone substrate; D4A 5-20 μmol/L
T1 construct: made in house; host or cells: yeast (microsomes)
Procedure: To test D4A as an inhibitor of 3βHSD, enzyme assays were performed as described previously. Li et al., Clin Cancer Res. 18:3571-3579 (2012). Briefly, incubations were prepared with recombinant human 3βHSD1 or 3βHSD2 (in yeast microsomes, 45 or 2.5 μg protein per incubation, respectively), [^3H]-pregnenolone (100,000 cpm, 1-20 μmol/L), and D4A (5-20 μmol/L) or ethanol vehicle in 0.5 mL of potassium phosphate buffer (pH 7.4). After a pre-incubation at 37° C. for 1 to 3 min, NAD (1 mmol/L) was added, and the incubation was conducted at 37° C. for 20 min. The reaction was stopped by addition of 1 mL ethyl acetate:isooctane (1:1), and the steroids were then extracted into the organic phase and dried. The steroids in the dried extracts were resolved by HPLC and quantitated by in-line scintillation counting

[3] = Abi conversion to D4A in mouse serum after Abi acetate; assay type: in vivo; settings: mice administered Abi acetate i.p.
Procedure: FIG. 1A-FIG. 1E provides chemical structures and graphs showing the structural consequences of the conversion from Abi to D4A that occurs in both mice, and patients, and requires 3βHSD. A, Schematic of Abi conversion to D4A. * double bond and C3-position for substrates and products of 3βHSD. B, Abi is converted to D4A in vivo. Abi acetate was injected i.p. in 5 mice. Blood was collected 2 h and 4 h after injection. Serum concentrations of Abi and D4A were quantified by mass spectrometry and are represented as the percentage of the sum total of Abi+D4A. C, D4A is detectable in all patients (n=12) with CRPC treated with Abi acetate. D, Representative mass spectrometry tracing of D4A and Abi from the serum of a patient treated with Abi acetate. E, 3βHSD1 is capable of converting Abi to D4A. LAPC4 cells overexpressing 3βHSD1 were treated with 10 μM Abi (or [^3H]-DHEA) for 24 h. Abi, D4A (as a percentage of Abi+D4A), [^3H]-DHEA and [^3H]-DHEA metabolites (labeled metabolites), were separated by HPLC. Results are shown as mean (n=3)±s.d. with biological replicates. The experiment was repeated independently at least 3 times.

[4] = test system: PSA, TMPRSS2 and FKBP5 expression; test: Inhibition of androgen-responsive gene expression (qPCR); assay type: cell-based, human
Procedure: Cells were starved with phenol red-free and serum free-medium for at least 48 h and treated with the indicated drugs and/or androgens. RNA was extracted with a GenElute Mammalian Total RNA miniprep kit (Sigma-Aldrich). cDNA was synthesized from 1 μg RNA in a reverse transcription reaction using the iScript cDNA Synthesis Kit (Bio-Rad, Hercules, Calif.). Quantitative PCR (qPCR) analysis was conducted in triplicate with primers for PSA, TMPRSS2, FKBP5, and RPLPO described previously (Chang et al., Cell, 154:1074-1084 (2013), with an ABI 7500 Real-Time PCR machine (Applied Biosystems) using iTaq Fast SYBR Green Supermix with ROX (Bio-Rad) in 96-well plates at a final reaction volume of 20 μL. Accurate quantitation of each mRNA was achieved by normalizing the sample values to RPLPO and to vehicle-treated cells.

T1 sequence (P14060 whole entry): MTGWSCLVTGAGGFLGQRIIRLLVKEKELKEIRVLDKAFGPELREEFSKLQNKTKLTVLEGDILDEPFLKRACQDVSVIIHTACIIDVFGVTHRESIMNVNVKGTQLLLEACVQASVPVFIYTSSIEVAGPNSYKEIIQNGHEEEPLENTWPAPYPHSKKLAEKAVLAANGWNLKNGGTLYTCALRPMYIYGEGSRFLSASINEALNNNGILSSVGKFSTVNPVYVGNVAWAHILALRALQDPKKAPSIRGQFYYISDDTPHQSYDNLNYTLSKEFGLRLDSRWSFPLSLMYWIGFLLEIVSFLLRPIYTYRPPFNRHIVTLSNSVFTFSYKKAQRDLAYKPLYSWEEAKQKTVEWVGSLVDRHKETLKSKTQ

Structure (SMILES): C[C@]12CCC(=O)C=C1CC[C@@H]1[C@@H]2CC[C@]2(C)C(c3cccnc3)=CC[C@@H]12 [Compound D4A, 17-(3-Pyridyl)androsta-4,16-dien-3-one]
- progression-free survival [1]: increased progression-free survival
- type of inhibition of 3βHSD1 [2]: mixed competitive-noncompetitive inhibition; also recorded: mixed inhibition kinetics
- detection in sera of mice [3]: detectable
- suppression of PSA, TMPRSS2 and FKBP5 expression compared to Abi ([4]; induced by DHT, DHEA and R1881, LNCAP, LAPC4 and C4-2 cell lines): clearly better suppresses
- inhibition of DHT-induced endogenous PSA expression ([4]; mutant and wild-type AR (LNCaP and LAPC4)): equivalent to enzalutamide

From patent US10265329B2, “Altering steroid metabolism for treatment of steroid-dependent disease” (THE CLEVELAND CLINIC FOUNDATION, priority 2015, dated 2019)
